tested on: not listed separately; experiment: Inhibition of bovine pancreas trypsin; set-up: species or system Bos taurus

IC50 [µM]	Compound
10.2	O=c1c(O)c(-c2cc(O)c(O)c(O)c2)oc2cc(O)cc(O)c12 [MYRICETIN]
144	COc1cc(C2Oc3c(O)cc([C@H]4Oc5cc(O)cc(O)c5C(=O)[C@@H]4O)cc3C2CO)ccc1O (stereo not given in full) [SILICRISTIN]
106	O=c1c(O)c(-c2ccc(O)cc2)oc2cc(O)cc(O)c12 [KAEMPFEROL]
142	O=c1cc(-c2ccc(O)cc2)oc2cc(O)cc(O)c12 [APIGENIN]
111	O=c1c(O)c(-c2ccc(O)cc2O)oc2cc(O)cc(O)c12 [MORIN]

Compound	IC50 [µM]
O=c1cc(-c2ccc(O)c(O)c2)oc2cc(O)cc(O)c12 [LUTEOLIN]	35.3
O=c1c(O)c(-c2ccc(O)c(O)c2)oc2cc(O)cc(O)c12 [QUERCETIN]	7.1

molecular target: T1, Cytosol aminopeptidase (Sus scrofa, UniProt P28839); experiment: Inhibition of pig kidney cytosolic Leucyl aminopeptidase
T1 sequence (P28839 whole entry): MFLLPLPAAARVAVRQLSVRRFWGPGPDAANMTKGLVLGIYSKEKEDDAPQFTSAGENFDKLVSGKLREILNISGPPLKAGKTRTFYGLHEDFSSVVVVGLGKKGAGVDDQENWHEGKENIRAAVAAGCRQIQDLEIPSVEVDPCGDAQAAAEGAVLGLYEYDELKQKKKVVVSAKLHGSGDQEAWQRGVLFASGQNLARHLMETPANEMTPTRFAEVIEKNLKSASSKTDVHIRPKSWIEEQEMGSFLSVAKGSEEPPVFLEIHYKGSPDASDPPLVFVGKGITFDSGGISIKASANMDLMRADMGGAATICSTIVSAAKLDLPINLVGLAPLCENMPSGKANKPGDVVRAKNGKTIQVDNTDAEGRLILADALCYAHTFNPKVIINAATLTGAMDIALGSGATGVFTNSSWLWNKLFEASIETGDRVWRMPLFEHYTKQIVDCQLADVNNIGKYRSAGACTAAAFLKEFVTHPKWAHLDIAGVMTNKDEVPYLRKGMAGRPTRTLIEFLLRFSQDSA

Compound	IC50 [µM]
O=c1cc(-c2ccc(O)c(O)c2)oc2ccccc12	35.1
O=c1cc(-c2ccc(O)c(O)c2)oc2cc(O)cc(O)c12 [LUTEOLIN]	49.6
O=c1c(O)c(-c2ccc(O)c(O)c2)oc2cc(O)cc(O)c12 [QUERCETIN]	34.3
